PMC5988656, “Phase I studies of AZD1208, a proviral integration Moloney virus kinase inhibitor in solid and haematological cancers” (British Journal of Cancer, 2018)
“And” between values parts separate entries of the source, which are not always exact repeats. Equal entries are not always repeated.

Columns and labels:
CYP3A4 = CYP3A4 activity assessed by 4-β-hydroxycholesterol levels, solid tumour study; assay type: in vivo, human; conditions: for 4-β-hydroxycholesterol Day 15 concentration / 4-β-hydroxycholesterol ratio (Day 15/Day 1): individual subjects
Protocol: In the solid tumour study, blood samples for 4β-hydroxycholesterol analysis were collected pre-dose at Cycle 0, Day 1; Cycle 1 (Day 8 and 15); and Cycle 2, Day 15.
The activity of CYP3A4 was assessed by analysing 4-β-hydroxycholesterol levels in samples collected from five patients at AZD1208 doses of 700 or 800 mg.

pBAD S112 = assay: PD: phosphorylated BAD at S112 by MesoScale Discovery ELISA, AML study; assay type: in vivo, human
Protocol: For AZD1208 PD evaluations, bone marrow aspirates were collected (pretreatment and Cycle 1, Day 1, 2–6 h following administration of AZD1208) and peripheral blood samples were collected (pretreatment on Cycle 1, Day 1; and on-treatment at Cycle 1, Day 1 at 3, 6 and 24 h post-dose; Cycle 1, Day 14 at pre-dose, 3 and 6 h post-dose). Mononuclear cells were isolated, and protein lysates prepared, for subsequent analysis of phosphorylated BAD at S112 by MesoScale Discovery ELISA and phosphorylation of 4E-BP1 at S65 by NanoPro immunoassay [unpublished data: McEachern et al. 2018, manuscript in preparation]. Samples were considered evaluable when the baseline biomarker levels were above the background signal (as defined by buffer-only negative control samples) and within the linear range of assay. Additionally, only blood samples containing detectable blasts were considered for analysis.

N[C@@H]1CCCN(c2c(/C=C3\SC(=O)NC3=O)cccc2-c2ccccc2)C1 [AZD1208]
Increase in 4-β-hydroxycholesterol levels on Day 15 compared with Day 1 (CYP3A4; five patients, 700 or 800 mg): ~ 4 fold | 4-β-hydroxycholesterol Day 15 concentration, Gmean (CV%) (CYP3A4; five subjects, 700 or 800 mg): 114.1 (29.2) ng ml | 4-β-hydroxycholesterol ratio (Day 15/Day 1), Gmean (CV%) (CYP3A4; five subjects, 700 or 800 mg): 4.38 (23.9) | 4-β-hydroxycholesterol Day 15 concentration (CYP3A4; dose 700 mg): 85.5 ng·mL and 91.9 ng·mL and 175 ng·mL | 4-β-hydroxycholesterol ratio (Day 15/Day 1) (CYP3A4; dose 700 mg): 3.41 and 5.93 and 4.90 | 4-β-hydroxycholesterol Day 15 concentration (CYP3A4; dose 800 mg): 128 ng·mL and 110 ng·mL | 4-β-hydroxycholesterol ratio (Day 15/Day 1) (CYP3A4; dose 800 mg): 4.67 and 3.49 | CYP3A4 activity (CYP3A4; multiple dosing, 700 or 800 mg): induced | Patients with reductions in pBAD S112 (pBAD S112; evaluable bone marrow samples, single dose): 7/17 | Patients with ≥50% reduction from baseline of pBAD S112 (pBAD S112; peripheral blood, all dose levels): 9/10
